Values joined by “and” are separate entries in the source; they are usually repeats but may differ in a detail not shown here. Identical values can stand only once. Counter-ions that a name gives are not always drawn.
What was measured:
[1] = test system: [^3H]-ADMA transport across the blood-brain and blood-CSF barriers; assay: self-inhibition, in situ perfusion: [^3H]-ADMA with 100 μM unlabelled ADMA; format: in vivo, mouse; conditions: 100 μM unlabelled ADMA; CSF; 10 minutes; not statistically significant, n of 2
Experimental: (§1) Self-inhibition experiments were also performed. […] Cross-competition experiments were also performed.
(§2) The percentage change in the RTissue uptake values achieved in the absence or presence of an unlabelled inhibitor can be calculated by means of Eq 4.
(§3) %change=RTissue−RInhibition/RTissue×100 Eq 4
(§4) We define RInhibition as the RTissue uptake in the presence of an inhibitor in the artificial plasma.
(§5) A decrease in the uptake of radiolabelled solute in the presence of unlabelled inhibitor is indicative of a saturable influx transport system. Conversely, an increase in the uptake of radiolabelled solute in the presence of unlabelled inhibitor is indicative of a saturable efflux transport system.

[2] = test system: [^3H]-arginine transport across the blood-brain and blood-CSF barriers; assay: cross-inhibition, in situ perfusion: [^3H]-arginine with 0.5–500 μM unlabelled ADMA; format: in vivo, mouse
Experimental: as §1, §2, §3, §4, §5
Concentrations of ADMA were specifically selected to mimic plasma concentrations under normal conditions (0.5 μM), pathophysiological conditions (3.0 μM), and then supraphysiological concentrations (10, 100 and 500 μM).

[3] = pH 7.4
Experimental: The lipophilicity of the radiolabelled test molecules was also measured by means of an octanol:saline partition coefficient. […] Centrifugation separated the hydrophobic (octanol) phase and hydrophilic (saline) phase and 100 μL samples in triplicate were taken for radioactive liquid scintillation counting on a Tricarb 2900TR liquid scintillation counter (Perkin-Elmer; Boston, MA, USA). The partition coefficient was calculated as the ratio of radioactivity in the octanol phase to the radioactivity in the aqueous phase.

[4] = test system: CAT1; conditions: HEK293 overexpressing CAT1; read-out: IC50, inhibition of CAT1-mediated transport of L-arginine; cited from earlier work
[5] = molecular target: eNOS; conditions: read-out: inhibition constant (Ki); cited from earlier work
[6] = in situ brain/choroid plexus perfusion: CNS uptake of [^3H]-arginine, [^3H]-ADMA and [^14C]-sucrose (multiple-time and single-time uptake analysis); conditions: 5ml/min; for [3H] ADMA and [14C] Sucrose uptake, frontal cortex: in mL/100 g; for Kp at […] / Kp at 20 min, 62.5 nM / Kp at 30 min, 62.5 nM / Kp at 10 min, 62.5 nM: CSF
Experimental: All animals used in procedures were adult male BALB/c mice (between 23 g and 25 g) sourced from Harlan Laboratories, Oxon, UK, unless otherwise stated.
Animals were weighed immediately before the administration of the anaesthetic to ensure correct dosage. Domitor® (medetomidine hydrochloride) and Vetalar® (ketamine) were both purchased from Harlan Laboratories (Cambridge, UK). All animals were terminally anaesthetised (2 mg/kg Domitor® and 150 mg/kg Vetalar® injected intraperitoneally), and a lack of self-righting and paw-withdrawal reflexes (as surrogate indicators of consciousness) thoroughly checked prior to and during all procedures. If needed, additional anaesthetic was administered via the same route. […] At the end of the in situ brain perfusion procedure the animal was killed by decapitated under non-recovery anaesthesia. Animals were heparinised with 100 units heparin (in 0.9% m/v NaCl(aq), Harlan Laboratories; Oxon, UK), administered via the intraperitoneal route prior to surgery.
The in situ brain/choroid plexus perfusion method is designed to directly perfuse the brain with artificial plasma via a cannula placed in the heart. Artificial plasma is prepared to mimic the ionic composition of blood, and transporter inhibitors can be added in known concentrations and delivered to the brain for defined periods of time.
The left ventricle of the heart was cannulated with a 25G x 10 mm butterfly-winged needle connected to the perfusion circuit. […] The right atrium of the heart was sectioned to allow outflow of the artificial plasma. […] Radiolabelled and unlabelled test molecules were infused into the inflowing artificial plasma for periods up to 30 minutes.
At the set perfusion time a CSF sample was taken by inserting a pulled glass micropipette connected to silicon tubing and a syringe into the cisterna magna. Gentle suction was applied, and CSF was withdrawn. Only clear CSF samples were processed and taken for analysis. Samples contaminated with blood were discarded. The animal was then decapitated and the brain removed. Specific brain samples including the circumventricular organs (CVOs) were taken using a Leica S4E L2 stereomicroscope (Leica; Buckinghamshire, UK). The brain samples included the frontal cortex, caudate nucleus, occipital cortex, hippocampus, hypothalamus, thalamus, pons and cerebellum. The CVOs included the choroid plexus, pituitary gland and pineal gland.
All samples (brain regions, capillary depletion brain homogenate, pellet and supernatant, CVOs, CSF and plasma samples) were solubilised in 0.5 mL tissue solubiliser (Solvable; Perkin-Elmer; Boston, MA, USA). After incubating the samples at room temperature for 48 h, 4 mL scintillation fluid (Lumasafe®; Perkin-Elmer; Boston, MA, USA) was added to each before vigorous vortexing.

[7] = 2.5 mins, Balb/c ♂, individual mouse
[8] = 30 mins, Balb/c ♂, individual mice
[9] = CONTROL, 10 mins, Balb/c ♂, mean
[10] = [3H] ADMA + [14C] Sucrose, 30 mins, Balb/c ♂, individual mice
[11] = [3H] ADMA + [14C] Sucrose, 30 mins, Balb/c ♂, mean

octanol-saline partition coefficient [3]: 0.00226±0.00006
[3H] ADMA and [14C] Sucrose uptake, choroid plexus [6, 7]: 1.245 and 0.8202 and 0.645 and 0.9198
[3H] ADMA and [14C] Sucrose uptake, frontal cortex [6, 7]: 0.1518 and 0.0919
Difference (ADMA minus Sucrose), caudate nucleus ([6]; 30 mins, Balb/c ♂, mean): 0.1018
Difference (ADMA minus Sucrose), choroid plexus ([6]; 30 mins, Balb/c ♂, mean): 0.4075
Difference (ADMA minus Sucrose), frontal cortex ([6]; 30 mins, Balb/c ♂, mean): 0.1041
Difference (ADMA minus Sucrose), caudate nucleus [6, 9]: 0.2407
Difference (ADMA minus Sucrose), cerebellum [6, 9]: 0.1615
Difference (ADMA minus Sucrose), choroid plexus [6, 9]: 2.6086
Difference (ADMA minus Sucrose), frontal cortex [6, 9]: 0.2494
Difference (ADMA minus Sucrose), hippocampus [6, 9]: 0.2174
Difference (ADMA minus Sucrose), hypothalamus [6, 9]: 0.3042
Difference (ADMA minus Sucrose), occipital cortex [6, 9]: 0.2252
Difference (ADMA minus Sucrose), pituitary gland [6, 9]: 1.829
Difference (ADMA minus Sucrose), pons [6, 9]: 0.2464
Difference (ADMA minus Sucrose), thalamus [6, 9]: 0.21
[3H] ADMA and [14C] Sucrose uptake, caudate nucleus [6, 9]: 0.2609
[3H] ADMA and [14C] Sucrose uptake, cerebellum [6, 9]: 0.1856
[3H] ADMA and [14C] Sucrose uptake, choroid plexus [6, 9]: 2.881
[3H] ADMA and [14C] Sucrose uptake, hippocampus [6, 9]: 0.2336
[3H] ADMA and [14C] Sucrose uptake, hypothalamus [6, 9]: 0.341
[3H] ADMA and [14C] Sucrose uptake, occipital cortex [6, 9]: 0.2471
[3H] ADMA and [14C] Sucrose uptake, pituitary gland [6, 9]: 1.982
[3H] ADMA and [14C] Sucrose uptake, pons [6, 9]: 0.2825
[3H] ADMA and [14C] Sucrose uptake, thalamus [6, 9]: 0.2291
[3H] ADMA and [14C] Sucrose uptake, frontal cortex [6, 9]: 0.273
uptake into caudate nucleus [6, 11]: 0.1344
uptake into choroid plexus [6, 11]: 0.5624
uptake into frontal cortex [6, 11]: 0.1398
uptake into occipital cortex [6, 11]: 0.139
Kp at […] ([6]; male, BALB/c, mouse, Difference (ADMA minus Sucrose), 2.5 mins, mean): 0.034
Kp at 20 min, 62.5 nM ([6]; male, BALB/c, mouse, Difference (ADMA minus Sucrose), individual mouse): 0.197
Kp at 20 min, 62.5 nM ([6]; male, BALB/c, mouse, Difference (ADMA minus Sucrose), mean): 0.225
Kp at 30 min, 62.5 nM ([6]; male, BALB/c, mouse, Difference (ADMA minus Sucrose), 30 mins, mean): 0.349
Kp at 10 min, 62.5 nM ([6]; male, BALB/c, mouse, Difference (ADMA minus Sucrose), CONTROL, 10 mins, mean): 0.267
Kp at […] ([6]; male, BALB/c, mouse, [3H] ADMA and [14C] Sucrose uptake, 2.5 mins, mean): 0.122
Kp at 20 min, 62.5 nM ([6]; male, BALB/c, mouse, [3H] ADMA and [14C] Sucrose uptake, mean): 0.433
Kp at 10 min, 62.5 nM ([6]; male, BALB/c, mouse, [3H] ADMA and [14C] Sucrose uptake, CONTROL, 10 mins, mean): 0.273
Kp at 30 min, 62.5 nM ([6]; male, BALB/c, mouse, uptake into CSF, [3H] ADMA + [14C] Sucrose, 30 mins, Balb/c ♂, mean): 0.721
Kp at […], 62.5 nM ([6]; male, BALB/c, mouse, caudate nucleus, Difference (ADMA minus Sucrose), 2.5 mins, mean): 0.0936
Structure (SMILES): CN(C)C(N)=NCCC[C@H](N)C(=O)O [ADMA, N^G,N^G-dimethylarginine dihydrochloride]
reduction of [^3H]-ADMA uptake [1]: 89.1%
effect on [^3H]-arginine distribution ([2]; 100 μM unlabelled ADMA, any of the samples analysed, 10 minutes): did not inhibit
inhibition of [^3H]-arginine distribution ([2]; 500 μM unlabelled ADMA, choroid plexus, 10 minutes): 72.6%
inhibition of [^3H]-arginine uptake ([2]; 500 μM unlabelled ADMA, each of the brain regions, 10 minutes): approximately 70%
inhibition of [^3H]-arginine distribution ([2]; 500 μM unlabelled ADMA, supernatant (brain parenchyma), 10 minutes): 72.0%
inhibition of [^3H]-arginine distribution ([2]; 500 μM unlabelled ADMA, whole brain homogenate, 10 minutes): 65.1%
effect on transport of [^3H]-arginine ([…]) across the blood-CNS barriers ([2]; 0.5–100 μM unlabelled ADMA): insensitive to inhibition
effect on [^3H]-arginine distribution ([2]; any concentration of unlabelled ADMA (0.5–500 μM), CSF, pineal gland and pituitary gland, 10 minutes): not affected
effect on [^3H]-arginine distribution ([2]; up to 500 μM unlabelled ADMA, cerebral capillary endothelial cells (pellet), 10 minutes): not affected
IC50 [4]: 758 µM
Ki [5]: 0.9 µM
Difference (ADMA minus Sucrose), choroid plexus [6, 7]: 0.4619 (2×) and 1.038 and 0.6787 and 0.7164
Difference (ADMA minus Sucrose), pineal gland [6, 7]: 0.0119 (2×) and 0.6055 and 0.1704 and 0.3775
Difference (ADMA minus Sucrose), caudate nucleus [6, 8]: 0.07868 and 0.2155 and 0.07884 and 0.04051 and 0.09553
Difference (ADMA minus Sucrose), choroid plexus [6, 8]: 0.4322 and 0.7701 and 0.2962 and 0.1895 and 0.3495
Difference (ADMA minus Sucrose), frontal cortex [6, 8]: 0.08507 and 0.2094 and 0.08399 and 0.04504 and 0.09711
Difference (ADMA minus Sucrose), occipital cortex [6, 8]: 0.09101 and 0.202 and 0.09058 and 0.04293 and 0.1128
Difference (ADMA minus Sucrose), pineal gland [6, 8]: 0.4361 and 1.061 and 0.1804 and 0.1286 and 0.2721
uptake into caudate nucleus [6, 10]: 0.09268 and 0.2487 and 0.1281 and 0.07499 and 0.1274
uptake into choroid plexus [6, 10]: 0.5413 and 0.9894 and 0.4672 and 0.3444 and 0.47
uptake into frontal cortex [6, 10]: 0.1003 and 0.2556 and 0.1339 and 0.07655 and 0.1326
uptake into occipital cortex [6, 10]: 0.1057 and 0.2389 and 0.1237 and 0.07486 and 0.1517

Source: article PMC11501026, “L-Arginine and asymmetric dimethylarginine (ADMA) transport across the mouse blood-brain and blood-CSF barriers: Evidence of saturable transport at both interfaces and CNS to blood efflux” (PLOS ONE, 2024)
